According to the NIST ThermoML archive (doi:10.1016/j.jct.2012.03.025):
Numbers after ± are expanded uncertainties.

Assay: mn = molality of the nth substance listed, in mol/kg
Conditions: 308.15 K; 101 kPa; Liquid; Vibrating tube method; m2 = 0
For `O` [water] + CC(=O)[O-].CCCCn1cc[n+](C)c1, the mass density was 994.058 ± 0.11 kg/m3.
With `O` [water] + CCCCn1cc[n+](C)c1.F[B-](F)(F)F the mass density was 994.058 ± 0.055 kg/m3.
With `O` [water] + CCCCn1cc[n+](C)c1.O=S(=O)([O-])C(F)(F)F the mass density was 994.058 ± 0.079 kg/m3.
With `O` [water] + CCCCn1cc[n+](C)c1.[Br-] the mass density was 994.058 ± 0.064 kg/m3.
With `O` [water] + CCCCn1cc[n+](C)c1.[Cl-] the mass density was 994.058 ± 0.044 kg/m3.
Molecule `O` [water] + CCCCn1cc[n+](C)c1.[I-] has a mass density of 994.058 ± 0.092 kg/m3.

Assay: not given
Conditions: 308.15 K; 101 kPa; Liquid; Vibrating tube method
In the case of `O` [water], the mass density is reported as 994.058 ± 0.044 kg/m3.
